Assay results from patent US10696685B2, “Polyketides, methods of use and preparation” (Universiteit Leiden, priority 2015, dated 2020).
“Also recorded” adds a separate entry of the source.

Legend:
[1] = test system: Bacillus subtilis 168; test: Disk diffusion antimicrobial activity assay, Bacillus subtilis 168; type: cell-based; conditions: paper disk, 25 μL of 2 μg/μL in chloroform (lugdunomycin: 10 μL of 1 μg/μL in methanol), 37° C., 18 h, FIG. 6 A
Text: (§1) Streptomyces sp. QL37 was isolated from soil in the Qinling mountains (P. R. China) soil as described previously (Zhu et al, 2014b). The previously undescribed strain was deposited to the collection of the Centraal Bureau voor Schimmelcultures (CBS) in Utrecht, The Netherlands. Streptomyces sp. QL37 was cultivated on Minimal Medium agar plates (MM) (Kieser et al., 2000) with 0.5% glycerol and 1% mannitol (w/v) as the carbon sources, on R5 agar supplemented with 0.8% peptone and 1% mannitol (w/v), or to prepare spore suspensions on SFM agar plates (Soy flour man nitol; (Kieser et al., 2000)). Square agar plates (12 cm×12 cm) were inoculated with 1×10^7 spores from a fresh spore suspension. As indicator strains for the antibacterial assays we used B. subtilis 168 and E. coli JM109 (Sambrook et al., 1989).
(§2) Antimicrobial activity was determined using a disk diffusion assay. For this, compounds were dissolved in chloroform to a concentration of (2 μg/μL) and of this solution, 25 μL was applied on a paper disk (GE Healthcare Bio-Sciences, Pittsburgh), except for lugdunomycin, for which 10 μL of a 1 μg/μL solution in methanol was used. […] After incubation at 37° C. for 18 h, growth inhibition zones (in mm) were recorded as antimicrobial activity.

[2] = test system: Escherichia coli JM109; test: Disk diffusion antimicrobial activity assay, Escherichia coli JM109; type: cell-based; conditions: paper disk, 25 μL of 2 μg/μL in chloroform (lugdunomycin: 10 μL of 1 μg/μL in methanol); 37° C., 18 h; FIG. 6 B, D
Text: as §1, §2

## COc1cccc2c1[C@@H](O)[C@]13C[C@@H](O)C[C@]1(C(=O)NC3=O)[C@]21Oc2cc(C)cc3ccc(O)c1c23 [Lugdunomycin (1), lugdunomycin]
[1]
  antimicrobial activity (growth inhibition) against Gram-positive Bacillus subtilis: showed inhibition efficacy; also recorded: showed antimicrobial activity
[2]
  antimicrobial activity (growth inhibition) against Gram-negative Escherichia coli JM109: not against
